Assay results: US20100093973A1, “POLY(AMINO ACID) COMPOUND HAVING INHIBITORY ACTIVITY ON ABSORPTION OF PHOSPHORUS AND PHOSPHORUS ABSORPTION INHIBITOR” (priority 2007, published 2010)
Structures can show the parent of a compound that is named as a salt.

Columns and labels:
absorption of phosphorus = experiment: Evaluation of efficacy as phosphorus absorption inhibitors: serum radioactivity AUC (0-120 min) after oral 32P NaH2PO4 in rats, inhibitory rate; format: in vivo; details: rats of SD line, 32P NaH2PO4 given orally 5 min later, serum radioactivity AUC 0-120 min vs control; for Inhibitory Rate (%) of Phosphorus Absorption: oral dose 100 mg/5 mL/kg; for 50 mg/kg Inhibition (%): oral dose 50 mg/5 mL/kg
Experimental: Seven-week-old male rats of SD line (available from SANKYO Labo-Service Co., Ltd.), as test animals, were kept and acclimatized using the usual feed (Solid CRF-1 available from ORIENTAL Yeast Co., Ltd.) and they were used in the following tests after they were fasted overnight. Each candidate substance (synthesized compound) dissolved in distilled water for injection (Otsuka Pharmaceutical Co., Ltd.) was orally administered in a dose of 100 mg/5 mL/kg or 50 mg/5 mL/kg and after 5 minutes from the administration, 3 mg/3 mL/kg, 1 MBq/kg of an NaH2PO4 solution containing ^32P (available from PerkinElmer Company) was orally administered. Subsequently, the blood was collected with the elapse of time through the caudal vein of the test animal to thus obtain the serum thereof and the radioactivity of 40 μL of the serum was determined using a liquid scintillation counter. The inhibitory rate (%) for each candidate compound was calculated on the basis of the foregoing measured values according to the following equation: […]

in vitro = format: cell-based; details: for IC50 at 1 day: dog
Experimental: MDCK Cells were inoculated into wells of a 96-well plate filled with D-MEM/F12 culture medium (available from GIBCO Company) supplemented with 10% FBS (available from TISSUE CULTURE BIOLOGICALS Company). After the cultivation of the cells for 3 days in a CO2 incubator, the culture medium was removed, a culture medium, in which each candidate substance (synthesized compound) had been dissolved, was added, followed by the cultivation for one day. To each well, there was added 10 μL of Cell Count Reagent SF (available from NAKARAI TESUKU K.K.), followed by the cultivation thereof for 2 hours and the subsequent determination of the absorbance observed at a wavelength of 460 nm. The IC50 values each were calculated on the basis of these measured values.

Compound | Inhibitory Rate (%) of Phosphorus Absorption (absorption of phosphorus) | 50 mg/kg Inhibition (%) (absorption of phosphorus) | other results
NCCCC[C@H](N)C(=O)NCCCC[C@H](NC(=O)[C@@H](N)CCCCN)C(=O)NCCCNCCCCNCCCNC(=O)[C@H](CCCCNC(=O)[C@@H](N)CCCCN)NC(=O)[C@@H](N)CCCCN [Example 7, SPM(Lys)6 Hydrochloride] | 24% |  | IC50 (in vitro): > 10000 µg/mL
TAA(PheOrnOrn)3 Hydrochloride [Example 48] |  | 74% | 
TETA(Phe-αOrnOrn)4 Hydrochloride [Example 49] |  | 74% | 
NCCCC[C@H](NC(=O)[C@@H](N)CCCCN)C(=O)NCCCN(CCCCN(CCCNC(=O)[C@H](CCCCN)NC(=O)[C@@H](N)CCCCN)C(=O)[C@H](CCCCN)NC(=O)[C@@H](N)CCCCN)C(=O)[C@H](CCCCN)NC(=O)[C@@H](N)CCCCN [Example 16, SPM(Lys)8 Hydrochloride] | 49% |  | IC50 at 1 day (in vitro): > 10000 µg/mL
NCCCC[C@H](N)C(=O)NCCCC[C@H](N)C(=O)N(CCCCN(CCCNC(=O)[C@@H](N)CCCCN)C(=O)[C@@H](N)CCCCNC(=O)[C@@H](N)CCCCN)CCCNC(=O)[C@@H](N)CCCCN [Example 6, SPM(Lys)6 Hydrochloride] | 30% |  | IC50 at 1 day (in vitro): > 10000 µg/mL
SPM(Orn)2 Hydrochloride [Example 17] | 30% |  | 
TETA[Orn(Dab)2]4 TFA Salt [Example 35] |  | 58% | 
TAA(TrpOrnDab)3 Hydrochloride [Example 61] |  | 70% | 
SPM(Arg)2(Lys)2 Hydrochloride [Example 19] | 35% |  | 
N=C(N)NCCC[C@H](N)C(=O)NCCCN(CCCCN(CCCNC(=O)[C@@H](N)CCCNC(=N)N)C(=O)[C@@H](N)CCCNC(=N)N)C(=O)[C@@H](N)CCCNC(=N)N [Example 5, SPM(Arg)4 Hydrochloride] | 52% |  | IC50 at 1 day (in vitro): > 10000 µg/mL
TAA[3,5-NH2Bz(Orn)2]3 Hydrochloride [Example 72] |  | 79% | 
NCCCC[C@H](N)C(=O)NCCCC[C@H](NC(=O)[C@@H](N)CCCCN)C(=O)N(CCCN)CCCCN(CCCN)C(=O)[C@H](CCCCNC(=O)[C@@H](N)CCCCN)NC(=O)[C@@H](N)CCCCN [Example 12, SPM(Lys)6 Hydrochloride] | 43% |  | IC50 at 1 day (in vitro): > 10000 µg/mL
NCCCC[C@H](N)C(=O)N(CCCCN(CCCNC(=O)[C@@H](N)CCCN)C(=O)[C@@H](N)CCCCN)CCCNC(=O)[C@@H](N)CCCN [Example 13, SPM(Orn)2(Lys)2 Hydrochloride] | 36% |  | IC50 at 1 day (in vitro): > 10000 µg/mL
TETA(Orn)2[Orn(Orn)2]2 TFA Salt [Example 34] |  | 63% | 
TETA[Lys(Dab)2]4 TFA Salt [Example 54] |  | 53% | 
TETA(OrnOrn)2(ChaOrn)2 Hydrochloride [Example 58] |  | 79% | 
NCCCC[C@H](N)C(=O)NCCCC[C@H](N)C(=O)NCCCN(CCCCN(CCCNC(=O)[C@@H](N)CCCCNC(=O)[C@@H](N)CCCCN)C(=O)[C@@H](N)CCCCNC(=O)[C@@H](N)CCCCN)C(=O)[C@@H](N)CCCCNC(=O)[C@@H](N)CCCCN [Example 15, SPM(Lys)8 Hydrochloride] | 33% |  | IC50 at 1 day (in vitro): > 10000 µg/mL
TETA(ProOrnOrn)2(OrnOrnOrn)2 Hydrochloride [Example 66] |  | 56% | 
TETA(D-Phe-Orn-Orn)4 Hydrochloride [Example 55] |  | 85% | 
NCCC[C@H](N)C(=O)NCCCN(CCCCN(CCCNC(=O)[C@@H](N)CCCN)C(=O)[C@@H](N)CCCN)C(=O)[C@@H](N)CCCN [Example 4, SPM(Orn)4 Hydrochloride] | 58% |  | IC50 at 1 day (in vitro): > 10000 µg/mL
TETA(Phe-δOrnOrn)4 Hydrochloride [Example 40] |  | 76% | 

Compound | Inhibitory Rate (%) of Phosphorus Absorption (absorption of phosphorus) | 50 mg/kg Inhibition (%) (absorption of phosphorus) | other results
TETA[Orn(Orn)2]2(Orn)2 TFA Salt [Example 36] |  | 55% | 
TETA[Orn(Orn)2]2(Orn)2 Hydrochloride [Example 39] |  | 55) % | 
TETA(PheDab)4 Hydrochloride [Example 63] |  | 73% | 
SPM(Lys)2(Arg)2 Hydrochloride [Example 23] | 45% |  | 
SPM(Lys)9 Hydrochloride [Example 27] | 64% |  | 
NCCCC[C@H](NC(=O)[C@@H](N)CCCCN)C(=O)NCCCC[C@H](N)C(=O)NCCCN(CCCCN(CCCNC(=O)[C@@H](N)CCCCNC(=O)[C@H](CCCCN)NC(=O)[C@@H](N)CCCCN)C(=O)[C@@H](N)CCCCNC(=O)[C@H](CCCCN)NC(=O)[C@@H](N)CCCCN)C(=O)[C@@H](N)CCCCNC(=O)[C@H](CCCCN)NC(=O)[C@@H](N)CCCCN [Example 29, SPM(Lys)12 Hydrochloride] | 55% |  | IC50 at 1 day (in vitro): > 10000 µg/mL
TAA[PheDab(Dab)2]3 Hydrochloride [Example 71] |  | 54% | 
TETA(OrnOrn)2(LeuOrn)2 Hydrochloride [Example 73] |  | 52% | 
TETA(Orn)2[Orn(Orn)2]2 Hydrochloride [Example 38] |  | 63) % | 
NCCC[C@H](NC(=O)[C@H](CCCN)NC(=O)[C@@H](N)CCCN)C(=O)NCCCN(CCCCN(CCCNC(=O)[C@H](CCCN)NC(=O)[C@H](CCCN)NC(=O)[C@@H](N)CCCN)C(=O)[C@H](CCCN)NC(=O)[C@H](CCCN)NC(=O)[C@@H](N)CCCN)C(=O)[C@H](CCCN)NC(=O)[C@H](CCCN)NC(=O)[C@@H](N)CCCN [Example 28, SPM(Orn)12 Hydrochloride] | 66% |  | IC50 at 1 day (in vitro): > 10000 µg/mL
TETA(OrnPheDab)4 Hydrochloride [Example 69] |  | 67% | 
TETA(Orn)2[Dab(Dab)2]2 Hydrochloride [Example 59] |  | 57% | 
TETA(PheOrn)2[Orn(Orn)Orn]2 Hydrochloride [Example 43] |  | 60% | 
TETA (Trp-Orn-Dab)4 Hydrochloride [Example 56] |  | 71% | 
TETA[Dab(Dab)2]4 Hydrochloride [Example 53] |  | 60% | 
TETA[Phe-Orn(Orn)2]4 Hydrochloride [Example 51] |  | 62% | 
TETA(LeuOrn)4 Hydrochloride [Example 75] |  | 55% | 
TETA[PheAsp(DETA)]4 Hydrochloride [Example 74] |  | 79% | 
TAA[(Benzoyl-4-methylene)DETA]3 Hydrochloride [Example 76] |  | 78% | 
SPM(Orn)8 Hydrochloride [Example 22] | 60% |  | 
SPM(Lys)8 Hydrochloride [Example 11] | 44% |  | 

Compound | Inhibitory Rate (%) of Phosphorus Absorption (absorption of phosphorus) | 50 mg/kg Inhibition (%) (absorption of phosphorus) | other results
TETA[Orn(Dab)2]4 Hydrochloride [Example 41] |  | 58) % | 
SPM(Orn)12 Hydrochloride [Example 8] | 63% |  | 
SPM(Lys)2(Orn)2 Hydrochloride [Example 10] | 30% |  | 
TETA(4-NH2Bz)4(Orn)4(Orn)8 Hydrochloride [Example 62] |  | 66% | 
TAA(TrpOrnOrn)3 Hydrochloride [Example 60] |  | 64% | 
TETA(TyrOrn)2(OrnOrn)2 TFA Salt [Example 42] |  | 59% | 
TETA(TyrOrn)2(OrnOrn)2 Hydrochloride [Example 52] |  | 59) % | 
TETA(PheOrn)4 Hydrochloride [Example 57] |  | 69% | 
TETA(Phe-δOrnOrn)5 Hydrochloride [Example 45] |  | 76% | 
TETA(OrnPheOrn)4 Hydrochloride [Example 70] |  | 57% | 
TETA(PheOrnDab)4 Hydrochloride [Example 67] |  | 84% | 
TETA(OrnOrn)2(PheOrn)2 Hydrochloride [Example 50] |  | 79% | 
TETA(TrpOrn)2(OrnOrn)2 Hydrochloride [Example 47] |  | 72% | 
TETA(PheOrn(3-Ala)4 Hydrochloride [Example 68] |  | 73% | 
TETA(OrnOrnOrn)2(ProOrnOrn)2 Hydrochloride [Example 65] |  | 57% | 
SPM(Orn)4 Hydrochloride [Example 9] | 30% |  | 
TETA(PheOrn)2(OrnOrn)2 Hydrochloride [Example 37] |  | 60% | 
TEPA(PheOrn)5 Hydrochloride [Example 64] |  | 87% | 
TETA(D-PheOrn)2(OrnOrn)2 Hydrochloride [Example 46] |  | 62% | 
